# Data taken from US20230017045A1, “PYRIDINE AND PYRIMIDINE CARBOXYLATE HERBICIDES AND METHODS OF USE THEREOF” (Dow AgroSciences LLC, priority 2017, published 2023).
# Test system: test plant species
# Assay: Post-emergent herbicidal activity test (greenhouse, foliar spray, visual growth reduction)
# Type: in vivo
# Conditions: post-emergence, 336 h, ECHCG: barnyardgrass (Echinochloa crus-galli), 140 g ai/ha, 14 days after application, read-out: Visual Growth Reduction (%) 14 Days After Application, ECHCG
# Summary of the method: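 Visual scoring 14 d after treatment (0 = no injury, 100 = complete control) against nontreated and solvent-blank plants gave percent growth reduction. Foliar application used a track sprayer delivering 187 L/ha to seedlings at first or second true leaf stage, grown at 23–29 °C day, ~15 h photoperiod.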
row,Structure (SMILES),pest or weed control at 140 g/ha
1,"COC(=O)c1nc(-c2ccc(C(F)(F)F)cc2F)ncc1Cl [F312, Methyl 5-chloro-2-(2-fluoro-4-(trifluoromethyl)phenyl) pyrimidine-4-carboxylate]",75 to 84%
2,"COC(=O)c1nc(-c2cc(F)c(OC)cc2F)ccc1Cl [F291, Methyl 3-chloro-6-(2,5-difluoro-4-methoxyphenyl) picolinate]",0 to 29%

# Same assay, conditions: post-emergence, 336 h, IPOHE: ivy-leaf morning glory (Ipomoea hederacea), 140 g ai/ha, 14 days after application, read-out: Visual Growth Reduction (%) 14 Days After Application, IPOHE
row,Structure (SMILES),pest or weed control at 140 g/ha
1,"COC(=O)c1nc(-c2ccc(C(F)(F)F)cc2F)ncc1Cl [F312, Methyl 5-chloro-2-(2-fluoro-4-(trifluoromethyl)phenyl) pyrimidine-4-carboxylate]",95 to 100%
2,"COC(=O)c1nc(-c2cc(F)c(OC)cc2F)ccc1Cl [F291, Methyl 3-chloro-6-(2,5-difluoro-4-methoxyphenyl) picolinate]",0 to 29%

# Same assay, conditions: post-emergence, 336 h, KCHSC: kochia (Bassia scoparia), 140 g ai/ha, 14 days after application, read-out: Visual Growth Reduction (%) 14 Days After Application, KCHSC
row,Structure (SMILES),pest or weed control at 140 g/ha
1,"COC(=O)c1nc(-c2ccc(C(F)(F)F)cc2F)ncc1Cl [F312, Methyl 5-chloro-2-(2-fluoro-4-(trifluoromethyl)phenyl) pyrimidine-4-carboxylate]",0 to 29%
2,"COC(=O)c1nc(-c2cc(F)c(OC)cc2F)ccc1Cl [F291, Methyl 3-chloro-6-(2,5-difluoro-4-methoxyphenyl) picolinate]",0 to 29%

# Same assay, conditions: post-emergence, 336 h, ORYSA: rice (Oryza sativa), 140 g ai/ha, 14 days after application, read-out: Visual Growth Reduction (%) 14 Days After Application, ORYSA
row,Structure (SMILES),pest or weed control at 140 g/ha
1,"COC(=O)c1nc(-c2ccc(C(F)(F)F)cc2F)ncc1Cl [F312, Methyl 5-chloro-2-(2-fluoro-4-(trifluoromethyl)phenyl) pyrimidine-4-carboxylate]",0 to 29%
2,"COC(=O)c1nc(-c2cc(F)c(OC)cc2F)ccc1Cl [F291, Methyl 3-chloro-6-(2,5-difluoro-4-methoxyphenyl) picolinate]",0 to 29%

# Same assay, conditions: post-emergence, 336 h, SETFA: giant foxtail (Setaria faberi), 140 g ai/ha, 14 days after application, read-out: Visual Growth Reduction (%) 14 Days After Application, SETFA
row,Structure (SMILES),pest or weed control at 140 g/ha
1,"COC(=O)c1nc(-c2ccc(C(F)(F)F)cc2F)ncc1Cl [F312, Methyl 5-chloro-2-(2-fluoro-4-(trifluoromethyl)phenyl) pyrimidine-4-carboxylate]",60 to 74%
2,"COC(=O)c1nc(-c2cc(F)c(OC)cc2F)ccc1Cl [F291, Methyl 3-chloro-6-(2,5-difluoro-4-methoxyphenyl) picolinate]",0 to 29%

# Same assay, conditions: post-emergence, 336 h, SORVU: grain sorghum (Sorghum vulgare), 140 g ai/ha, 14 days after application, read-out: Visual Growth Reduction (%) 14 Days After Application, SORVU
row,Structure (SMILES),pest or weed control at 140 g/ha
1,"COC(=O)c1nc(-c2ccc(C(F)(F)F)cc2F)ncc1Cl [F312, Methyl 5-chloro-2-(2-fluoro-4-(trifluoromethyl)phenyl) pyrimidine-4-carboxylate]",85 to 94%
2,"COC(=O)c1nc(-c2cc(F)c(OC)cc2F)ccc1Cl [F291, Methyl 3-chloro-6-(2,5-difluoro-4-methoxyphenyl) picolinate]",0 to 29%

# Same assay, conditions: post-emergence, 336 h, STEME: common chickweed (Stellaria media), 140 g ai/ha, 14 days after application, read-out: Visual Growth Reduction (%) 14 Days After Application, STEME
row,Structure (SMILES),pest or weed control at 140 g/ha
1,"COC(=O)c1nc(-c2ccc(C(F)(F)F)cc2F)ncc1Cl [F312, Methyl 5-chloro-2-(2-fluoro-4-(trifluoromethyl)phenyl) pyrimidine-4-carboxylate]",0 to 29%
2,"COC(=O)c1nc(-c2cc(F)c(OC)cc2F)ccc1Cl [F291, Methyl 3-chloro-6-(2,5-difluoro-4-methoxyphenyl) picolinate]",0 to 29%

# Same assay, conditions: post-emergence, 336 h, TRZAS: wheat, spring (Triticum aestivum), 140 g ai/ha, 14 days after application, read-out: Visual Growth Reduction (%) 14 Days After Application, TRZAS
row,Structure (SMILES),pest or weed control at 140 g/ha
1,"COC(=O)c1nc(-c2ccc(C(F)(F)F)cc2F)ncc1Cl [F312, Methyl 5-chloro-2-(2-fluoro-4-(trifluoromethyl)phenyl) pyrimidine-4-carboxylate]",30 to 44%
2,"COC(=O)c1nc(-c2cc(F)c(OC)cc2F)ccc1Cl [F291, Methyl 3-chloro-6-(2,5-difluoro-4-methoxyphenyl) picolinate]",0 to 29%

# Same assay, conditions: post-emergence, 336 h, blackgrass (Alopecurus myosuroides), 14 Days After Application, 140 g ai/ha, read-out: Visual Growth Reduction (%) ALOMY
row,Structure (SMILES),pest or weed control at 140 g/ha
1,"COC(=O)c1nc(-c2ccc(C(F)(F)F)cc2F)ncc1Cl [F312, Methyl 5-chloro-2-(2-fluoro-4-(trifluoromethyl)phenyl) pyrimidine-4-carboxylate]",0 to 29%
2,"COC(=O)c1nc(-c2cc(F)c(OC)cc2F)ccc1Cl [F291, Methyl 3-chloro-6-(2,5-difluoro-4-methoxyphenyl) picolinate]",0 to 29%

# Same assay, conditions: post-emergence, 336 h, canada thistle (Cirsium arvense), 14 Days After Application, 140 g ai/ha, read-out: Visual Growth Reduction (%) CIRAR
row,Structure (SMILES),pest or weed control at 140 g/ha
1,"COC(=O)c1nc(-c2ccc(C(F)(F)F)cc2F)ncc1Cl [F312, Methyl 5-chloro-2-(2-fluoro-4-(trifluoromethyl)phenyl) pyrimidine-4-carboxylate]",85 to 94%
2,"COC(=O)c1nc(-c2cc(F)c(OC)cc2F)ccc1Cl [F291, Methyl 3-chloro-6-(2,5-difluoro-4-methoxyphenyl) picolinate]",30 to 44%

# Same assay, conditions: post-emergence, 336 h, crabgrass (Digitaria sanguinalis), 14 Days After Application, 140 g ai/ha, read-out: Visual Growth Reduction (%) DIGSA
row,Structure (SMILES),pest or weed control at 140 g/ha
1,"COC(=O)c1nc(-c2ccc(C(F)(F)F)cc2F)ncc1Cl [F312, Methyl 5-chloro-2-(2-fluoro-4-(trifluoromethyl)phenyl) pyrimidine-4-carboxylate]",85 to 94%
2,"COC(=O)c1nc(-c2cc(F)c(OC)cc2F)ccc1Cl [F291, Methyl 3-chloro-6-(2,5-difluoro-4-methoxyphenyl) picolinate]",0 to 29%

# Same assay, conditions: post-emergence, 336 h, lambsquarters (Chenopodium album), 14 Days After Application, 140 g ai/ha, read-out: Visual Growth Reduction (%) CHEAL
row,Structure (SMILES),pest or weed control at 140 g/ha
1,"COC(=O)c1nc(-c2ccc(C(F)(F)F)cc2F)ncc1Cl [F312, Methyl 5-chloro-2-(2-fluoro-4-(trifluoromethyl)phenyl) pyrimidine-4-carboxylate]",85 to 94%
2,"COC(=O)c1nc(-c2cc(F)c(OC)cc2F)ccc1Cl [F291, Methyl 3-chloro-6-(2,5-difluoro-4-methoxyphenyl) picolinate]",45 to 59%

# Same assay, conditions: post-emergence, 336 h, redroot pigweed (Amaranthus retroflexus), 14 Days After Application, 140 g ai/ha, read-out: Visual Growth Reduction (%) AMARE
row,Structure (SMILES),pest or weed control at 140 g/ha
1,"COC(=O)c1nc(-c2ccc(C(F)(F)F)cc2F)ncc1Cl [F312, Methyl 5-chloro-2-(2-fluoro-4-(trifluoromethyl)phenyl) pyrimidine-4-carboxylate]",85 to 94%
2,"COC(=O)c1nc(-c2cc(F)c(OC)cc2F)ccc1Cl [F291, Methyl 3-chloro-6-(2,5-difluoro-4-methoxyphenyl) picolinate]",0 to 29%

# Same assay, conditions: post-emergence, 336 h, wild oat (Avena fatua), 14 Days After Application, 140 g ai/ha, read-out: Visual Growth Reduction (%) AVEFA
row,Structure (SMILES),pest or weed control at 140 g/ha
1,"COC(=O)c1nc(-c2ccc(C(F)(F)F)cc2F)ncc1Cl [F312, Methyl 5-chloro-2-(2-fluoro-4-(trifluoromethyl)phenyl) pyrimidine-4-carboxylate]",0 to 29%
2,"COC(=O)c1nc(-c2cc(F)c(OC)cc2F)ccc1Cl [F291, Methyl 3-chloro-6-(2,5-difluoro-4-methoxyphenyl) picolinate]",0 to 29%

# Same assay, conditions: post-emergence, 336 h, yellow nutsedge (Cyperus esculentus), 14 Days After Application, 140 g ai/ha, read-out: Visual Growth Reduction (%) CYPES
row,Structure (SMILES),pest or weed control at 140 g/ha
1,"COC(=O)c1nc(-c2ccc(C(F)(F)F)cc2F)ncc1Cl [F312, Methyl 5-chloro-2-(2-fluoro-4-(trifluoromethyl)phenyl) pyrimidine-4-carboxylate]",45 to 59%
2,"COC(=O)c1nc(-c2cc(F)c(OC)cc2F)ccc1Cl [F291, Methyl 3-chloro-6-(2,5-difluoro-4-methoxyphenyl) picolinate]",0 to 29%
